Experimental data as given in patent US20050261246A1, “Methods for treating inflammatory and autoimmune diseases” (priority 2004, published 2005).

Experiments:
[1] = test system: VEGF production in human cancer cell lines; experiment: VEGF production in human cancer cell lines (ELISA); format: cell-based
Description: (A) Effect of SNS on VEGF production was analyzed in two cancer cell lines (both supernatants and cell lysates). (B) The supernatant from control and drug treated H460 cells was analyzed for the level of VEGF (pg/ml). C. […] Statistical analyses were performed using one-way ANOVA.
As discussed above, SNS and pancratastatin were originally synthesized as an anti-cancer agent. The inventors also examined the effect of SNS and pancratastatin on the production of VEGF in human cancer cell lines (FIG. 2). […] This analysis had been performed at least 3-5 times depending on the cell lines and drug used, with statistical analysis performed using one-way ANOVA.

[2] = test system: CD11c+/CD40+/CD86+ spleen cells; experiment: Splenic dendritic, B and T cells in non-CAIA Balb/c mice treated with SNS (FACS); format: in vivo, mouse; conditions: 5 mg/kg i.p. five consecutive days
Description: (A) Reduction of CD11c+/CD40+/CD86+ cells isolated from spleens of non-CAIA Balb/c mice treated i.p. with SNS at 5 mg/kg or with PBS for 5 consecutive days. Spleens were isolated on the next day after the last SNS injection and splenocytes were analyzed using FACS. The percentage value represents CD11c+/CD40+/CD86+ cell percentage out of the entire splenocyte population. […] Values on X and Y axes represent fluorescence intensity for cell surface markers CD11c and CD40, B220, and CD90.2 (Thy-1), respectively.
Balb/c mice were treated i.p. with SNS for five consecutive days at 5 mg/kg and their spleen were harvested the next day after the last injection. Control mice received same numbers of injection of PBS. Splenic cells were stained with fluorescence-labeled antibodies, and analyzed by flow cytometry.

[3] = test system: NO production in LPS-stimulated RAW 264.7 cells; experiment: NO production in LPS-stimulated RAW264.7 macrophage cell line (Griess reaction); format: cell-based, mouse; conditions: pre-treated with different concentrations, then 1 ng/ml LPS
Description: Cells were pre-treated with different concentrations of SNS and then followed by stimulation with LPS. C is medium control. LPS, positive control without SNS treatment. The statistical analysis was performed using one-way ANOVA.
In further tests, we investigated the effect of SNS on the production of NO in a mouse macrophage cell line, RAW264.7. Cells were pre-treated with different concentrations of SNS and subsequently stimulated with 1 ng/ml of LPS. The level of NO production was measured by a spectrophotographic method using the Griess reaction. […] “C” is medium control, and “LPS” is positive control without SNS treatment. This analysis had been performed at least 3-5 times depending on the cell lines and drug used, with statistical analysis performed using one-way ANOVA.

[4] = test system: Lewis rats with Adjuvant-Induced Arthritis; experiment: Adjuvant-induced arthritis (AA) rat model: footpad width, radiographs, spleen weight; format: in vivo
Description: Summary: Adjuvant-Induced Arthritis (“AA”) was induced by intradermal injection of complete Freund's adjuvant (CFA) into the base of the tail of Lewis rats. Controls received intradermal injections of the arthritogenic antigen, M. butyricum suspended in saline. […] AA and control rats were given once-daily intraperitoneal (i.p.) injections of narcistatin (5 mg/Kg/day, in 250 μl sterile saline), vehicle, or no treatment initiated at disease onset and continued through severe disease.
Adult male Lewis rats (200-250 g) were purchased from Charles River Laboratories, Raleigh, N.C. and housed two per cage. The animals were allowed to acclimate to the Sun Health Research Institute's vivarium for 7 days prior to the start of the experiment. The animals were maintained on a 12-h off/on light schedule. For AA rats rodent Diet (Purina Lab Diet 5001) was placed in the bottom of the cage and water was supplied using long-stemmed sipper tubes for easy access to food and water. […] Animals were weighed and observed daily to ensure adequate weight gain and good general health. Body weights and footpad measures were started 1 week prior to the first adjuvant injection to acclimate the animals to these mild stresses and obtain baseline data. Other than the development of arthritis, the good health of the animals was maintained throughout the course of the experiments. Protocols for the use and care of the animals in the study were approved prior to beginning the experiments by the Sun Health Research Institute Animal Use and Care Committee and complied with NIH guidelines for the humane use and care of research animals. Dorsoplantar footpad measurements were completed every other day. Prior to sacrifice the animals were given a 1.0 ml intraperitoneal (i.p.) injection of 8% chloral hydrate in sterile saline and radiographs were taken of their hind limbs to assess disease severity. The animals were then sacrificed using an overdose of chloral hydrate.
Sodium narcistatin was synthesized as previously described (27). CFA was prepared by emulsifying Mycobacterium butyricum (0.03 g dried and heat killed; Difco, Detroit, Mich. in 10 ml sterile mineral oil). M. butyricum (0.03 g) also was suspended in 10 ml sterile saline. The CFA and M. butyricum in saline were prepared by grinding the M. butyricum with a mortar and pestle until the lyophilized bacteria had turned from a light beige to an eggshell white powder. The mineral oil or saline was then slowly worked into the heat-killed bacteria using the mortar and pestle. The suspensions were treated with a sonic dismembraner for 5 min to ensure that the bacterial cell wall remained suspended in the mineral oil or saline until the animal injections. While there is variability in severity of disease development between the batches of adjuvant, there is very little variability within each batch. All animals in each experiment were challenged with the same preparation of adjuvant and 100% of the animals developed arthritis with similar timing of disease onset.
Lewis rats were randomly assigned into five experimental groups of four animals per group. The experimental groups were 1) saline/M. Butyricum suspended in saline (non-arthritic; control for drug and antigen challenge), 2) sodium narcistatin/M. Butyricum suspended in saline (non-arthritic; drug control for antigen challenge), 3) no treatment-CFA (arthritic; control for stress of injections), 4) saline-CFA (arthritic; control for drug treatment), and 5) sodium-narcistatin-CFA (arthritic) treatments. The experiment was completed with an N=4 then repeated with an additional N=4. The data from each group in the first and repeated experiment were compared. No statistical differences between the findings from these repeat experiments were found; therefore, the data was combined to give an N=8 for each experimental group. CFA or saline/M. Butyricum injections were given on experimental day 1. […]

[5] = AA rats, 5 mg/Kg/day i.p., vs vehicle treated AA rats

Compound: O=C1N[C@@H]2C(=C[C@H](O)[C@H]3OP(=O)(O)O[C@H]32)c2cc3c(c(O)c21)OCO3 [SNS, sodium narcistatin]
- VEGF production, narcistatin compared with pancratistatin [1]: comparable inhibition on VEGF production
- effect on VEGF production/secretion ([1]; human cancer cell lines, ELISA): significantly suppresses the secretion of VEGF
- CD11c+/CD86+/CD40+ spleen cells (mature dendritic cells) [2]: reduction of CD11c+/CD86+/CD40+ spleen cells
- T- and B-cell profile (B220, CD90.2) [2]: not affected
- NO production [3]: concentration-dependent inhibition of NO production
- reduction of bone loss, as measured by radiographic analysis [4, 5]: ~50%
- reduction of hind limb inflammation, as measured by dorsoplantar width [4, 5]: ~70%
- time of disease onset ([4]; CFA-challenged rats): did not change the time of disease onset
- soft tissue swelling of the dorsoplantar footpads ([4]; CFA-challenged rats, day 23 to day 28 post-immunization, vs vehicle-treated arthritic rats): significantly decreased the soft tissue swelling
- redness and soft tissue swelling of hind limbs ([4]; arthritic rats, daily treatment day 10 through day 28, photomicrographs day 28): dramatically decreased the redness and soft tissue swelling
- bone destruction and cartilage loss in radiographs ([4]; arthritic rats, day 28, vs saline-treated arthritic rats): decreases in bone destruction (mainly osteoporosis and erosions) and cartilage loss
- radiographic scores of ankle joints ([4]; arthritic rats, day 28, vs vehicle or no treatment, P<0.05): significantly lower radiographic scores
- spleen weight, arthritic rats ([4]; day 28, vs Saline-CFA): blocked this increase in spleen weight
- spleen weight, antigen-challenged non-arthritic rats ([4]; day 28, vs saline): did not differ
- footpad width in non-arthritic animals ([4]; non-arthritic, vehicle vs drug): no differences in footpad width
